# Measurements reported in PMC9539459 (Virology, 2022).
# Entries after “also recorded” stand apart in the source; their conditions may differ. Like-named read-outs stand apart in the source and are kept apart here.
# How the values were obtained:
# SARS-CoV-2 [1] = assay type: cell-based
# SARS-CoV-2 [2] = assay: Cell-based antiviral drug testing in Vero-E6 cells; details: for antiviral activity (in words): top 9 screened compounds, Vero-E6, percent inhibition, SRB assay
smiles,measurement,setting,value
C/C=C(/C)C(=O)OC(C)(C)[C@@H]1Cc2c(ccc3ccc(=O)oc23)O1 [Columbianadin],inhibition of viral particle production (in words),SARS-CoV-2 [1],inhibit production of SARS-CoV-2
same,antiviral activity (in words),SARS-CoV-2 [2],substantial antiviral activity
Cc1oc(-c2ccccc2)nc1CCC(=O)c1ccc(CC2SC(=O)NC2=O)cc1 (stereo not shown) [Darglitazone Sodium],inhibition of viral particle production (in words),SARS-CoV-2 [1],greater anti-SARS-CoV-2 activity
same,reduction of infectious virus production,SARS-CoV-2 [1],over 3 orders of magnitude
same,inhibition of viral particle production (in words),SARS-CoV-2 [1]; listed as darglitazone sodium,inhibit production of SARS-CoV-2
same,EC50,SARS-CoV-2 [2],< 10 µM
same,antiviral activity (in words),SARS-CoV-2 [2],substantial antiviral activity
CNC(=O)c1ccc(-c2cnc3ncc(Cc4ccc5ncccc5c4)n3n2)cc1F [INCB28060],inhibition of viral particle production (in words),SARS-CoV-2 [1],inhibit production of SARS-CoV-2; also recorded: greater anti-SARS-CoV-2 activity
same,reduction of infectious virus production,SARS-CoV-2 [1],over 3 orders of magnitude
same,antiviral activity (in words),SARS-CoV-2 [2],best antiviral activity; also recorded: substantial antiviral activity
